Laboratory results from PubChem BioAssay (NCI).
Several values for one entry are separate records, joined by “and”; a condition that tells them apart may be missing. Equal values may be shown once.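 Where inhibition never reached the appropriate level, the endpoint shown equals the highest concentration tested. Otherwise, values were interpolated linearly from a five-concentration, 48-hour dose response in 96-well plates. At the GI50, growth is halved. The concentration for full growth arrest is given as TGI.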 Where a SMILES comes first, the peptide text is derived from it. [ ]: non-standard residue; d: D form. 2Nal = N[CH](Cc1ccc2ccccc2c1)C(=O)O

Experiments:
Experiment in all cases: inhibition of tumour cell growth, NCI panel, 48 h
SF-268 CNS = system: SF-268 CNS
SK-MEL-5 melanoma = system: SK-MEL-5 melanoma
OVCAR-8 ovarian = system: OVCAR-8 ovarian
NCI-H226 lung = system: NCI-H226 lung
IGROV1 ovarian = system: IGROV1 ovarian
HS 578T breast = system: HS 578T breast
SW-620 colon = system: SW-620 colon
RXF 393 renal = system: RXF 393 renal
LOX IMVI melanoma = system: LOX IMVI melanoma
SK-OV-3 ovarian = system: SK-OV-3 ovarian

| SMILES | TGI (SF-268 CNS) | TGI (SK-MEL-5 melanoma) | TGI (OVCAR-8 ovarian) | TGI (NCI-H226 lung) | TGI (IGROV1 ovarian) | TGI (HS 578T breast) | TGI (SW-620 colon) | TGI (RXF 393 renal) | TGI (LOX IMVI melanoma) | TGI (SK-OV-3 ovarian) | GI50 (SF-268 CNS) | GI50 (SK-MEL-5 melanoma) | GI50 (OVCAR-8 ovarian) | GI50 (NCI-H226 lung) | GI50 (IGROV1 ovarian) | GI50 (HS 578T breast) | GI50 (SW-620 colon) | GI50 (RXF 393 renal) | GI50 (LOX IMVI melanoma) | GI50 (SK-OV-3 ovarian) |
| --- | --- | --- | --- | --- | --- | --- | --- | --- | --- | --- | --- | --- | --- | --- | --- | --- | --- | --- | --- | --- |
| CC1=COC2=C(C)C(=O)C(=O)c3c(C)ccc1c32 | 36.6 µM | 3.26 µM | 12.4 µM | 68.9 µM | 21.6 µM | > 95.7 µM | 28.9 µM | 21.5 µM | 16 µM | > 93.2 µM |  |  |  |  |  |  |  |  |  |  |
| CCOC(=O)c1cc(C(=O)c2cc(OC)cc(OC)c2)n2ncccc12 | > 100 µM | > 100 µM | > 100 µM | > 100 µM | > 100 µM | > 100 µM | > 100 µM | 14.2 µM | > 100 µM | > 100 µM | 26500 nM | 508 nM | 3.77 µM | > 100 µM | 7120 nM | 1990 nM | 518 nM | 1640 nM | 804 nM | 4.9 µM |
| C#C[C@]1(O)CC[C@H]2[C@@H]3CC=C4c5nc(Nc6ccc(OC)cc6OC)sc5CC[C@]4(C)[C@H]3CC[C@@]21C | 6.65 µM | 3.26 µM | > 100 µM | 6.23 µM | 7.11 µM | 2.36 µM | 3.71 µM | 0.608 µM | 2.97 µM | 7.02 µM | 1750 nM | 1730 nM | 3.2 µM | 2.3 µM | 1990 nM | 411 nM | 1550 nM | 262 nM | 1450 nM | 1.83 µM |
| CN(C)CCCC1(c2ccc(F)cc2)OCc2cc(-c3ccc4cc[nH]c4c3)ccc21 (configuration not stated) | 3.26 µM | 3.25 µM | 13.8 µM | 29.3 µM | 3.61 µM | 4.27 µM | 3.64 µM | 7.56 µM | 3.27 µM | 12.9 µM | 1640 nM | 1810 nM | 3.32 µM | 10.7 µM | 1730 nM | 1800 nM | 1830 nM | 2480 nM | 1780 nM | 3.38 µM |
| C[C@]12CC[C@@H]3c4ccc(O)cc4CC[C@H]3[C@@H]1CC[C@@H]2NS(=O)(=O)c1cccc(Br)c1 | 16.6 µM | 3.31 µM | 16.7 µM | 15.6 µM | 16.5 µM | 24.8 µM | 18 µM | 6.2 µM | 11.6 µM | 18.6 µM | 3980 nM | 1770 nM | 3.98 µM | 3.19 µM | 4040 nM | 4040 nM | 4070 nM | 2150 nM | 3130 nM | 6.8 µM |
| O=C(c1cccs1)c1c(C(F)(F)F)n([O-])c2cc(F)c(F)cc2[n+]1=O | 6.88 µM | 4.44 µM | 5.16 µM | 7.47 µM | 3.92 µM | 12.1 µM | 4.09 µM | 7.16 µM | 1.78 µM | 5.85 µM | 2990 nM | 1900 nM | 2.77 µM | 3.62 µM | 1860 nM | 1210 nM | 2450 nM | 2420 nM | 747 nM | 2.69 µM |
| CS(=O)(=O)c1ccc(C(F)(F)F)cc1NC(=O)Nc1cnc(Oc2ccc(-c3cc(Cl)cnc3N)cc2)nc1 | 10.3 µM | 3.87 µM | > 29 µM | 26.3 µM | 6.04 µM | 8.44 µM | 16.8 µM | 4.61 µM | 3.05 µM | 18 µM | 2390 nM | 1870 nM | 2.86 µM | 2.75 µM | 1730 nM | 2080 nM | 3240 nM | 1790 nM | 1620 nM | 3.31 µM |
| N#Cc1cccc(Nc2nccc(-c3cnn4ncccc34)n2)c1 | 0.3 µM | 0.018 µM | > 25 µM | 0.0152 µM | > 11.6 µM | 0.021 µM | > 25 µM | 0.00791 µM | > 8.75 µM | > 25 µM | 4.98 nM | 6.18 nM | 0.0065 µM | 0.00513 µM | 9.37 nM | 4.82 nM | 6.02 nM | 2.69 nM | 2.79 nM | 0.014 µM |
| NC1=C(c2nc(-c3cc4ccccc4oc3=O)cs2)C(c2ccco2)c2c(c3ccccc3oc2=O)O1 (configuration not stated) | > 150 µg/mL | > 150 µg/mL | > 150 µg/mL | 131 µg/mL | > 150 µg/mL | 139 µg/mL | > 150 µg/mL | 114 µg/mL | > 150 µg/mL | > 150 µg/mL | 68.4 µg/mL | > 150 µg/mL | > 150 µg/mL | 43.1 µg/mL | > 150 µg/mL | 39.6 µg/mL | > 150 µg/mL | 17.3 µg/mL | > 150 µg/mL | 51.4 µg/mL |
| Cc1cc(NC(=O)CCc2ccc(N3C(N)=NC(N)=NC3(C)C)cc2)ccc1S(=O)(=O)F | > 100 µM | 19.1 µM | > 100 µM | > 100 µM | > 100 µM | > 100 µM | > 100 µM | > 100 µM | > 100 µM | > 100 µM | 524 nM | 125 nM | 0.6 µM | 18.4 µM |  | 28300 nM | 146 nM | 1350 nM | 172 nM | 4.58 µM |
| O=[N+]([O-])c1ccc2nc(N/N=C/c3ccc(O)cc3)sc2c1 | 53.1 µM | 11.1 µM | 32.2 µM | 62.8 µM | > 100 µM | 38.3 µM | 27.2 µM | 66.9 µM | 10.6 µM | 48.9 µM | 4840 nM | 2880 nM | 3.75 µM | 17.5 µM | 3840 nM | 3700 nM | 4910 nM | 10900 nM | 3080 nM | 5.37 µM |
| CC(NC(=O)C(N)Cc1ccccc1)C(=O)NC(Cc1ccc(O)cc1)C(=O)NC(Cc1c[nH]c2ccccc12)C(=O)NC(CCCCN)C(=O)NC(C(=O)NC(C)C(=O)NC(Cc1ccc2ccccc2c1)C(N)=O)C(C)C (configuration not stated) (H-FAYWKVA[2Nal]-NH2; configuration not given here) | > 12.5 µM | > 12.5 µM | > 100 µM | > 12.5 µM | > 12.5 µM and 49 µM | > 12.5 µM | > 12.5 µM | > 12.5 µM and 36.5 µM | > 12.5 µM | > 12.5 µM |  |  | 37.2 µM |  | 24100 nM |  |  | 17700 nM |  |  |
| Cc1cc(N2CCN(C)CC2)nc(NC2CCCC(Nc3ccnc4cc(Cl)ccc34)C2)n1 (configuration not stated) | 6.35 µM | 3.17 µM | 15.5 µM | 10.3 µM | 7.85 µM | 6.41 µM | 10.8 µM | 3.17 µM | 3.53 µM | 11.5 µM | 1970 nM | 1760 nM | 3.75 µM | 3.01 µM | 2240 nM | 2170 nM | 2480 nM | 1420 nM | 1770 nM | 3.35 µM |
